The text below walks through data of ChEMBL document CHEMBL1649323, “Easy strategy to protect antimicrobial peptides from fast degradation in serum” (Antimicrob Agents Chemother, 2010).

What is called MIC is the lowest concentration that inhibits growth of the organism. The term half-life denotes the time in which the quantity being followed falls by half. Lower therefore signals rapid decline.

The subject of one series is Pseudomonas aeruginosa. Description: Antimicrobial activity against Pseudomonas aeruginosa PAO1 H103 by broth microdilution method. The series is classed as functional. (In general: In broth dilution the organism is exposed to a series of concentrations in liquid medium.)
Another series relates to Staphylococcus aureus. The series is described as follows: Antimicrobial activity against Staphylococcus aureus ATCC 25923 by broth microdilution method. The class given is functional.
A short description of series [1]: Half life in mouse serum. The class given is ADME, cell-free.

≈ marks a conversion by molar mass, not a printed value.

`CC[C@H](C)[C@H](NC(=O)[C@H](CCCNC(=N)N)NC(=O)[C@H](Cc1c[nH]c2ccccc12)NC(=O)[C@H](CCCNC(=N)N)NC(=O)[C@H](CCCNC(=N)N)NC(=O)[C@@H](C)N)C(=O)N[C@H](C(=O)N[C@H](C(=O)N[C@H](C(=O)N[C@@H](CCCNC(=N)N)C(=O)N[C@H](C(=O)N[C@@H](CCCNC(=N)N)C(=O)N[C@@H](CCCNC(=N)N)C(=O)N[C@H](Cc1cnc[nH]1)C(N)=O)C(C)C)[C@@H](C)CC)C(C)C)C(C)C`: the results for the minimal inhibitory concentration (MIC) against Pseudomonas aeruginosa and in the series with Staphylococcus aureus were 2 µg/mL (≈ 1.07 µM) and 1 µg/mL (≈ 0.534 µM), respectively.
For `CC[C@H](C)[C@H](NC(=O)[C@H](CNC(=N)N)NC(=O)[C@H](Cc1c[nH]c2ccccc12)NC(=O)[C@H](CNC(=N)N)NC(=O)[C@H](CNC(=N)N)NC(=O)[C@@H](C)N)C(=O)N[C@H](C(=O)N[C@H](C(=O)N[C@H](C(=O)N[C@@H](CNC(=N)N)C(=O)N[C@H](C(=O)N[C@@H](CNC(=N)N)C(=O)N[C@@H](CNC(=N)N)C(=O)N[C@H](Cc1cnc[nH]1)C(N)=O)C(C)C)[C@@H](C)CC)C(C)C)C(C)C`, in that order: 2 µg/mL (≈ 1.17 µM) and 1 µg/mL (≈ 0.587 µM).
Take H-RRWRIVVIRVRR-NH2: the minimum inhibitory concentration (MIC) in the series with Pseudomonas aeruginosa came out at 2 µg/mL; against Staphylococcus aureus, 1 µg/mL. In addition, the half-life in series [1] is 1 h.
